Test results from the OligoGym collection.
Several values for one entry are separate records, joined by “and”; a condition that tells them apart may be missing. Equal entries are not always repeated. After the bases stand the sugars from the 5' end (letter, count) and the backbone: PS all phosphorothioate, else s phosphorothioate and o phosphodiester by linkage. Methylation of C is not given here. k = constrained ethyl (cEt); d = 2'-deoxy (DNA)

biological target: IRF4; conditions: ASO, MM.1R, 4 µM

Sequence	target mRNA inhibition [%]
TGTGTATTACTCTTAG (sugars kkdddddddddkdkdk, PS)	91

same assay, conditions: ASO, SK-MEL-28, 4 µM

Sequence	target mRNA inhibition
TGCTAGGATTCCTAAC (sugars k3 d10 k3, PS)	26%
TGCTGATGTGTTCTGG (sugars k3 d10 k3, PS)	67% and 58%
TGCTTGAATTCCTTGA (sugars k3 d10 k3, PS)	67%
TGGACACTTTTAGAGA (sugars k3 d10 k3, PS)	72%
TGGACCCACGAAGATT (sugars k3 d10 k3, PS)	38%
TGGCAACCATTTTCAC (sugars k3 d10 k3, PS)	7%
TGGCACGAGGAAGCAT (sugars k3 d10 k3, PS)	46%
TGGCAGTGGAGCTCCA (sugars k3 d10 k3, PS)	46%
TGGCCACAGAGGACTT (sugars k3 d10 k3, PS)	33%
TGGTACACCTCTTCAC (sugars k3 d10 k3, PS)	32%
TGGTAGGTCAAACTCC (sugars k3 d10 k3, PS)	-13%
TGGTTCTCTATAGTGT (sugars k3 d10 k3, PS)	71%
TGTAACAGGCTATCAG (sugars k3 d10 k3, PS)	31%
TGTAAGTGATAGGTAT (sugars k3 d10 k3, PS)	53%
TGTAGTATGAGAAACG (sugars k3 d10 k3, PS)	69%
TGTCAAACCCTACTGG (sugars k3 d10 k3, PS)	23%
TGTCAAACTATAATTG (sugars k3 d10 k3, PS)	15%
TGTCAATACTGAAAGG (sugars k3 d10 k3, PS)	36%
TGTGAAGCATCCTTTC (sugars k3 d10 k3, PS)	45%
TGTTACTTGCCACAGT (sugars k3 d10 k3, PS)	39%

Sequence	target mRNA inhibition
TTAAACAGTGCCCAAG (sugars k3 d10 k3, PS)	21%
TTAAAGATGCCAGAGG (sugars k3 d10 k3, PS)	28%
TTAAAGGAGTGCAGGA (sugars k3 d10 k3, PS)	16%
TTAACCAATCCCAACA (sugars k3 d10 k3, PS)	30%
TTAAGATTTATGTTCC (sugars k3 d10 k3, PS)	64%
TTAATCTGTCTAAACC (sugars k3 d10 k3, PS)	16%
TTACATCTTACTTCCC (sugars k3 d10 k3, PS)	42%
TTACCATTTTCACAAG (sugars k4 d8 k4, PS)	7%
TTACGAGAGGGTCTGA (sugars k3 d10 k3, PS)	51%
TTACTAACTGGCTTCC (sugars k3 d10 k3, PS)	49%
TTACTAGGTGCTTGTT (sugars k3 d10 k3, PS)	50%
TTACTTAGACATTACT (sugars k3 d10 k3, PS)	48%
TTACTTCCCTGAGAAA (sugars k3 d10 k3, PS)	20%
TTAGAATGCATAACAC (sugars k3 d10 k3, PS)	44%
TTAGACTGACAGCCGA (sugars k3 d10 k3, PS)	53%
TTAGAGGACAGTGACT (sugars k3 d10 k3, PS)	18%
TTATACTGTCTGGTTA (sugars k3 d10 k3, PS)	44%
TTATCTTCCCTTAGGA (sugars k3 d10 k3, PS)	28%
TTATGGACCACGCAGC (sugars k3 d10 k3, PS)	31%
TTATTAAGTCAATCAC (sugars k3 d10 k3, PS)	-1%

Sequence	target mRNA inhibition
TTCAACAGCACTGTCC (sugars k3 d10 k3, PS)	65%
TTCACGCACCATTCAG (sugars k3 d10 k3, PS)	16%
TTCAGACAGATGCAGC (sugars k3 d10 k3, PS)	62%
TTCAGTTGTAAATGAG (sugars k3 d10 k3, PS)	56%
TTCCAACAGGCGGACA (sugars k3 d10 k3, PS)	43%
TTCCAACCTTTATGAT (sugars k3 d10 k3, PS)	7%
TTCCAGCAAGACCTAA (sugars k3 d10 k3, PS)	27%
TTCCATGCTTGTCTCG (sugars k3 d10 k3, PS)	62%
TTGAAAGATTCAGCCT (sugars k3 d10 k3, PS)	3%
TTGAAATAAGCTCATC (sugars k3 d10 k3, PS)	33%
TTGAAATGGAGCATCC (sugars k3 d10 k3, PS)	22%
TTGAATAGAGGAATGG (sugars k3 d10 k3, PS)	42%
TTGATAAAGGCTGAAC (sugars k3 d10 k3, PS)	67%
TTGCATCCATGTCAAC (sugars k3 d10 k3, PS)	47%
TTGCCTTCGCTCACTC (sugars k3 d10 k3, PS)	22%
TTGCTCTTGTTCAAAG (sugars k3 d10 k3, PS)	29%
TTGGAAAGACAAGTGC (sugars k3 d10 k3, PS)	15%
TTGTCATGGTGTAGGG (sugars k3 d10 k3, PS)	41%
TTGTGAAGCATCCTTT (sugars k3 d10 k3, PS)	63%
